According to PMC3113660 (Journal of medicinal chemistry, 2010):
Like-named read-outs stand apart in the source and are kept apart here.

Experiments:
[1] = system: Plasmodium falciparum (K1, resistant to chloroquine); test: In vitro growth inhibition assay of P. falciparum; assay type: cell-based; details: for IC50: Plasmodium falciparum
[2] = system: Leishmania donovani (MHOM/SD/62/1S-CL2D) axenic amastigotes; test: Antileishmanial assay; assay type: cell-based; details: for activity against L. donovani (in words): in vitro, axenic amastigotes
[3] = In vitro cytotoxicity assay; assay type: cell-based, rat; details: rat
[4] = system: Trypanosoma brucei rhodesiense (STIB900); test: In vitro growth inhibition assay of T. brucei rhodesiense; assay type: cell-based; details: for SIT, selectivity index for T. brucei rhodesiense: ratio IC50 (L6)/IC50 (T. brucei rhodesiense)
[5] = system: T. brucei rhodesiense STIB900; assay type: in vivo, mice; details: number of mice that survive and are parasite free for 60 days
[6] = system: L6 rat myoblast cells; test: In vitro cytotoxicity assay; assay type: cell-based; details: L6 cells; relative to 5,5′-disubstituted analogue 1
[7] = system: P. berghei; test: P. berghei mouse model; assay type: in vivo; details: subcutaneously at 30 mg/kg daily for four days; data not shown
[8] = system: P. berghei; details: mice; cited from earlier work
[9] = K1, read-out: antiplasmodial IC50, P. falciparum, in vitro

In the case of `Cl.Cl.N=C(N)c1ccc(-n2cc(-c3cc(C(=N)N)ccc3O)nn2)cc1` [Compound 28, 4-(5-Amidino-2-hydroxyphenyl)-1-(4-amidinophenyl)-1H-1,2,3-triazole Dihydrochloride], the IC50 [1, 9] is reported as < 58 nM and the “activity against L. donovani (in words)” value [2] is reported as “active”.
In the case of `C[C@@H]1CC[C@H]2[C@@H](C)C(=O)O[C@@H]3O[C@@]4(C)CC[C@@H]1[C@]32OO4` [artemisinin, reference compound], the IC50 at 70 h [3] is reported as 450000 nM and the “SIP, selectivity index for P. falciparum” value ([1]; ratio IC50 (L6)/IC50 (P. falciparum)) is reported as 75000.
For `COc1ccc(C2=NCCN2)cc1-c1cn(-c2cccc(C3=NCCN3)c2)nn1.Cl.Cl` [Compound 9, 4-[5-(4,5-Dihydro-1H-imidazol-2-yl)-2-methoxyphenyl]-1-[3-(4,5-dihydro-1H-imidazol-2-yl)phenyl]-1H-1,2,3-triazole Dihydrochloride], the “SIT, selectivity index for T. brucei rhodesiense” value (shortened to “SIT, selectivity index”) [4] was >29333, the “times as active against T. brucei rhodesiense” value ([4]; relative to unsubstituted analogue 3) was ~2350 times and the IC50 [1, 9] was < 58 nM. For the same compound, the “fold more active against P. falciparum” value ([1]; relative to diimidazoline 3) was 26 fold, the “activity against L. donovani (in words)” value [2] was “active” and the cures ([5]; 4 × 1 mg/kg ip) was “no cures”.
For `COc1cc([C@@H]2c3cc4c(cc3[C@H](O)[C@H]3COC(=O)[C@H]23)OCO4)cc(OC)c1OC` [podophyllotoxin], the IC50 at 70 h [3] was 20 nM.
For `Cl.Cl.N=C(N)c1ccc(-c2cn(-c3ccc(C(=N)N)cc3)nn2)cc1` [Compound 46, 1,4-Bis(4-amidinophenyl)-1H-1,2,3-triazole Dihydrochloride], the fold increased cytotoxicity [6] was ~25 fold, the IC50 [1, 9] was < 58 nM and the cures ([5]; 4 × 0.5 mg/kg ip) was “no cures”.
In the case of `Cl.Cl.N=C(N)c1ccc(-n2cc(-c3cccc(C(=N)N)c3)nn2)cc1` [Compound 16, 1-(4-Amidinophenyl)-4-(3-amidinophenyl)-1H-1,2,3-triazole Dihydrochloride], the fold increased cytotoxicity [6] is reported as ~25 fold, the “activity against L. donovani (in words)” value [2] is reported as “active” and the cures ([5]; 4 × 5 mg/kg ip) is reported as “curing one out of four mice”.
In the case of `COc1cc(C(=N)N)ccc1-n1cc(-c2cccc(C(=N)N)c2)nn1.Cl.Cl` [Compound 19, 1-(4-Amidino-2-methoxyphenyl)-4-(3-amidinophenyl)-1H-1,2,3-triazole Dihydrochloride], the “SIT, selectivity index” value [4] is reported as >17455, the IC50 [1, 9] is reported as < 58 nM and the “activity against L. donovani (in words)” value [2] is reported as “active”.
With `N=C(N)c1ccc(OCCCCCOc2ccc(C(=N)N)cc2)cc1` [pentamidine, 1,5-bis(4-amidinophenoxy)pentane, reference compound] the IC50 ([2]; Leishmania donovani, read-out: L. donovani IC50) was 1800 nM.
With `Cl.Cl.N=C(N)c1cccc(-c2cn(-c3cccc(C(=N)N)c3)nn2)c1` [Compound 1, 1,4-Bis(3-amidinophenyl)-1H-1,2,3-triazole Dihydrochloride] the IC50 [1, 9] was < 58 nM, the “activity against L. donovani (in words)” value [2] was “active” and the cures ([5]; 4 × 5 mg/kg ip) was “no activity”.
With `Cl.Cl.N=C(N)c1cccc(-n2cc(-c3cc(C(=N)N)ccc3O)nn2)c1` [Compound 13, 4-(5-Amidino-2-hydroxyphenyl)-1-(3-amidinophenyl)-1H-1,2,3-triazole Dihydrochloride] the “fold less active against T. brucei rhodesiense” value ([4]; relative to diamidine 1) was 2 fold, the IC50 [1, 9] was < 58 nM and the “activity against L. donovani (in words)” value [2] was “active”.
With `Cl.Cl.Oc1cc(C2=NCCN2)ccc1-c1cn(-c2ccc(C3=NCCN3)cc2)nn1` [Compound 60, 4-[4-(4,5-Dihydro-1H-imidazol-2-yl)-2-hydroxyphenyl]-1-[4-(4,5-dihydro-1H-imidazol-2-yl)phenyl]-1H-1,2,3-triazole Dihydrochloride] the “times as active against P. falciparum” value ([1]; relative to diimidazoline 48) was 3 times, the “times greater antiplasmodial selectivity index SIP” value ([1]; relative to pentamidine) was ~400 times and the “effect on blood parasite count” value [7] was “did not reduce the blood parasite count”.
For `N=C(N)c1ccc(-c2ccc(-c3ccc(C(=N)N)cc3)o2)cc1` [furamidine, 2,5-bis(4-amidinophenyl)furan], the “activity against trophozoite-induced P. berghei infection” value [8] is listed as “inactive”.
`Nc1nc(N)nc(Nc2ccc([As]3SCC(CO)S3)cc2)n1` (stereo not shown) [melarsoprol] showed an IC50 at 70 h [3] of 7780 nM.
With `Cl.Cl.Oc1ccc(C2=NCCN2)cc1-c1cn(-c2ccc(C3=NCCN3)cc2)nn1` [Compound 30, 4-[5-(4,5-Dihydro-1H-imidazol-2-yl)-2-hydroxyphenyl]-1-[4-(4,5-dihydro-1H-imidazol-2-yl)phenyl]-1H-1,2,3-triazole Dihydrochloride] the IC50 [1, 9] was < 58 nM and the “activity against L. donovani (in words)” value [2] was “active”.
For `COc1ccc(C(=N)N)cc1-c1cn(-c2ccc(C(=N)N)cc2)nn1.Cl.Cl` [Compound 22, 4-(5-Amidino-2-methoxyphenyl)-1-(4-amidinophenyl)-1H-1,2,3-triazole Dihydrochloride], the “SIT, selectivity index” value [4] was >24750, the IC50 [1, 9] was < 58 nM and the “activity against L. donovani (in words)” value [2] was “active”. For the same compound, the cures ([5]; 4 × 5 mg/kg ip) was “curing at least two out of four animals”.
Compound `CCN(CC)CCCC(C)Nc1ccnc2cc(Cl)ccc12` (stereo not shown) [chloroquine, reference compound] has an IC50 at 70 h [3] of 117000 nM and an IC50 ([1]; K1, read-out: P. falciparum IC50) of 124 nM.
